30 compounds from patent US9586962B2, “Disubstituted octahydropyrrolo [3,4-C] pyrroles as orexin receptor modulators” (Janssen Pharmaceutica NV, priority 2011, dated 2017) can be followed below.

The assay concerns the target human orexin 2 receptor (Homo sapiens (Human), UniProt O43614). In words: Human orexin 2 receptor Ca2+ mobilization assay (FLIPR, PFSK cells, orexin B 100 nM). The class given is cell-based. As to conditions: modified Cheng-Prusoff correction, read-out: OR 2 Kb. The method, then: Human Orexin 2 Receptor Ca^2+ Mobilization Assay
Cells were seeded on to 96-well Packard viewplates at a density of 50,000 cells/well and incubated overnight at 37° C., 5% CO2. The cells were dye-loaded with 4 μM Ca^2+ dye Fluo-3AM in serum-free DMEM/F-12 with 2.5 mM probenecid and incubated at 37° C., 5% CO2 for one hour. Cells were pre-incubated with compounds (diluted in DMEM/F-12) for 30 minutes before agonist (orexin B, 100 nM) stimulation. Ligand-induced Ca^2+ release was measured using a Fluorometric Imaging Plate Reader (FLIPR, Molecular Devices, Sunnyvale, Calif.). Functional responses were measured as peak fluorescence intensity minus basal. The concentration of agonist that produced a half-maximal response is represented by the EC50 value. Antagonistic potency values were converted to apparent pKB values using a modified Cheng-Prusoff correction. Apparent pKB=−log IC50/1+[conc agonist/EC50]. Data are expressed as mean±S.E.M, the designation of NT means not tested.
For orientation: A change in cytosolic calcium serves as a functional read-out for many receptors and channels.

The structures appear in SMILES notation.

human orexin 2 receptor, sequence (O43614 whole entry): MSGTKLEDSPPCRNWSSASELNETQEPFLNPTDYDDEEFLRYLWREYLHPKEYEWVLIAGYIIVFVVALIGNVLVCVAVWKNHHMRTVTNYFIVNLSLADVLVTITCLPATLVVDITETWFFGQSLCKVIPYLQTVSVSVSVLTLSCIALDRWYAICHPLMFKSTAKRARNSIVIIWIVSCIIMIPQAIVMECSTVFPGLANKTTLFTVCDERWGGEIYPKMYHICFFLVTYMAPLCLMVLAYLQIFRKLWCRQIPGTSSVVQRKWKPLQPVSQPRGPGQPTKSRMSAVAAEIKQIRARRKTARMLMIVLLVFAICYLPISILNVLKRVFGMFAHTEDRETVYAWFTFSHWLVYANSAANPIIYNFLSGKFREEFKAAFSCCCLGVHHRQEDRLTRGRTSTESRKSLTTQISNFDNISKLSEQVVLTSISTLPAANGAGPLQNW

As for `Cc1noc(-c2ccccc2C(=O)N2CC3CN(c4ncc(F)c(C)n4)CC3C2)n1` (stereo not drawn) [Example 310, 2-(5-Fluoro-4-methylpyrimidin-2-yl)-5-{[2-(3-methyl-1,2,4-oxadiazol-5-yl)phenyl]carbonyl}octahydropyrrolo[3,4-c]pyrrole], the Kb turned out to be 15 nM. For the compound `Cc1cnc(C)c(N2CC3CN(C(=O)c4ccccc4-c4ncn[nH]4)CC3C2)n1` (stereo not drawn) [Example 213, [5-(3,6-Dimethyl-pyrazin-2-yl)-hexahydro-pyrrolo[3,4-c]pyrrol-2-yl]-[2-(2H-[1,2,4]triazol-3-yl)-phenyl]-methanone], the Kb worked out at 50 nM.

Regarding `Cc1cc(N2CC3CN(C(=O)c4cc(F)ccc4-c4ncccn4)CC3C2)nc(C(F)(F)F)n1` (stereo not drawn) [Example 204, (5-Fluoro-2-pyrimidin-2-yl-phenyl)-[5-(6-methyl-2-trifluoromethyl-pyrimidin-4-yl)-hexahydro-pyrrolo[3,4-c]pyrrol-2-yl]-methanone], the Kb was 20 nM. In the case of `Cc1cc(C)nc(N2CC3CN(C(=O)c4ccccc4-c4nc(C)no4)CC3C2)n1` (stereo not drawn) [Example 306, 2-(4,6-Dimethylpyrimidin-2-yl)-5-{[2-(3-methyl-1,2,4-oxadiazol-5-yl)phenyl]carbonyl}octahydropyrrolo[3,4-c]pyrrole], the Kb is 13 nM. The value for `Cc1cc(C)nc(N2CC3CN(C(=O)c4cccc5c4-c4ccccc4C5)CC3C2)n1` (stereo not drawn) [Example 326, 2-(4,6-Dimethylpyrimidin-2-yl)-5-(9H-fluoren-4-ylcarbonyl)octahydropyrrolo[3,4-c]pyrrole] was 4 nM; that for `Cc1cc(N2CC3CN(C(=O)c4ccc(F)cc4-n4nccn4)CC3C2)nc(C(F)(F)F)n1` (stereo not drawn) [Example 99, 2-{[4-Fluoro-2-(2H-1,2,3-triazol-2-yl)phenyl]carbonyl}-5-[6-methyl-2-(trifluoromethyl)pyrimidin-4-yl]octahydropyrrolo[3,4-c]pyrrole] was 16 nM; that for `Cc1cc(N2CC3CN(C(=O)c4ccccc4-c4ccccc4)CC3C2)nc2ccccc12` (stereo not drawn) [Example 178, 2-[5-(Biphenyl-2-ylcarbonyl)hexahydropyrrolo[3,4-c]pyrrol-2(1H)-yl]-4-methylquinoline] was 126 nM.

Regarding `Cc1cc(C)nc(N2CC3CN(C(=O)c4cccc(F)c4I)CC3C2)n1` (stereo not drawn) [Example 232, (5-(4,6-Dimethylpyrimidin-2-yl)hexahydropyrrolo[3,4-c]pyrrol-2(1H)-yl)(3-fluoro-2-iodophenyl)methanone], the Kb amounted to 7 nM. The value for `Cc1noc(-c2ccccc2C(=O)N2CC3CN(c4nc(C)c(C)c(C)n4)CC3C2)n1` (stereo not drawn) [Example 309, 2-{[2-(3-Methyl-1,2,4-oxadiazol-5-yl)phenyl]carbonyl}-5-(4,5,6-trimethylpyrimidin-2-yl)octahydropyrrolo[3,4-c]pyrrole] was 6 nM; that for `Cc1cc(C)nc(N2CC3CN(C(=O)c4occc4-c4ccccc4)CC3C2)n1` (stereo not drawn) [Example 13, 2-(4,6-Dimethylpyrimidin-2-yl)-5-[(3-phenylfuran-2-yl)carbonyl]octahydropyrrolo[3,4-c]pyrrole] was 79 nM; that for `Cc1cc(C)nc(N2CC3CN(C(=O)c4nc(C)sc4-c4ccccc4F)CC3C2)n1` (stereo not drawn) [Example 132, 2-(4,6-Dimethylpyrimidin-2-yl)-5-{[5-(2-fluorophenyl)-2-methyl-1,3-thiazol-4-yl]carbonyl}octahydropyrrolo[3,4-c]pyrrole] was 79 nM. As to `Cc1cc(N2CC3CN(C(=O)c4ccccc4-c4nnc[nH]4)CC3C2)nc(C(F)(F)F)n1` (stereo not drawn) [Example 96, 2-[6-Methyl-2-(trifluoromethyl)pyrimidin-4-yl]-5-{[2-(4H-1,2,4-triazol-3-yl)phenyl]carbonyl}octahydropyrrolo[3,4-c]pyrrole], the Kb was 50 nM. The value for `Cc1ccc(-n2nccn2)c(C(=O)N2CC3CN(c4nc(C)cnc4C)CC3C2)c1` (stereo not drawn) [Example 123, [5-(3,6-Dimethyl-pyrazin-2-yl)-hexahydro-pyrrolo[3,4-c]pyrrol-2-yl]-(5-methyl-2-[1,2,3]triazol-2-yl-phenyl)-methanone] was 79 nM; that for `Cc1nc(N2CC3CN(C(=O)c4ccccc4-n4nccn4)CC3C2)ncc1F` (stereo not drawn) [Example 290, 2-(5-Fluoro-4-methylpyrimidin-2-yl)-5-{[2-(2H-1,2,3-triazol-2-yl)phenyl]carbonyl}octahydropyrrolo[3,4-c]pyrrole] was 7 nM; that for `Cc1cc(C)nc(N2CC3CN(C(=O)c4cccc5cccc(-n6nccn6)c45)CC3C2)n1` (stereo not drawn) [Example 328, [5-(4,6-Dimethyl-pyrimidin-2-yl)-hexahydro-pyrrolo[3,4-c]pyrrol-2-yl]-(8-[1,2,3]triazol-2-yl-naphthalen-1-yl)-methanone] was 40 nM.

On to `COc1ccnc(N2CC3CN(C(=O)c4ccc(F)cc4-n4nccn4)CC3C2)n1` (stereo not drawn) [Example 159, 2-{[4-Fluoro-2-(2H-1,2,3-triazol-2-yl)phenyl]carbonyl}-5-(4-methoxypyrimidin-2-yl)octahydropyrrolo[3,4-c]pyrrole], for which the Kb turned out to be 8 nM. Take `CN(C)c1nc(N2CC3CN(C(=O)c4cc(F)ccc4-c4ncccn4)CC3C2)cc(C(F)(F)F)n1` (stereo not drawn) [Example 109, 4-{5-[(5-Fluoro-2-pyrimidin-2-ylphenyl)carbonyl]hexahydropyrrolo[3,4-c]pyrrol-2(1H)-yl}-N,N-dimethyl-6-(trifluoromethyl)pyrimidin-2-amine]: the Kb was determined as 25 nM. With `COc1cc(N2CC3CN(C(=O)c4ccccc4-n4nccn4)CC3C2)nc(N(C)C)n1` (stereo not drawn) [Example 5, 4-Methoxy-N,N-dimethyl-6-[5-{[2-(2H-1,2,3-triazol-2-yl)phenyl]carbonyl}hexahydropyrrolo-[3,4-c]pyrrol-2(1H)-yl]pyrimidin-2-amine], the Kb stood at 5 nM. The value for `Cc1cc(C)nc(N2CC3CN(C(=O)c4cccc(F)c4-c4ccccn4)CC3C2)n1` (stereo not drawn) [Example 472, (5-(4,6-dimethylpyrimidin-2-yl)hexahydropyrrolo[3,4-c]pyrrol-2(1H)-yl)(3-fluoro-2-(pyridin-2-yl)phenyl)methanone] was 3 nM. In the case of `COc1ccnc(N2CC3CN(C(=O)c4ccccc4-n4nccn4)CC3C2)n1` (stereo not drawn) [Example 156, 2-(4-Methoxypyrimidin-2-yl)-5-{[2-(2H-1,2,3-triazol-2-yl)phenyl]carbonyl}octa hydropyrrolo[3,4-c]pyrrole], the Kb was found to be 16 nM. The value for `COc1cc(N2CC3CN(C(=O)c4cc(F)ccc4-n4nccn4)CC3C2)nc(N(C)C)n1` (stereo not drawn) [Example 4, 4-[5-{[5-Fluoro-2-(2H-1,2,3-triazol-2-yl)phenyl]carbonyl}hexahydropyrrolo[3,4-c]pyrrol-2(1H)-yl]-6-methoxy-N,N-dimethylpyrimidin-2-amine] was 32 nM; that for `COc1ccc(C(=O)N2CC3CN(c4ncc(F)c(C)n4)CC3C2)c(-n2nccn2)c1` (stereo not drawn) [Example 377, 2-(5-Fluoro-4-methylpyrimidin-2-yl)-5-{[4-methoxy-2-(2H-1,2,3-triazol-2-yl)phenyl]carbonyl}octahydropyrrolo[3,4-c]pyrrole] was 2 nM. As to `O=C(c1ccccc1-c1ccccc1)N1CC2CN(c3cnc4ccccc4n3)CC2C1` (stereo not drawn) [Example 168, 2-[5-(Biphenyl-2-ylcarbonyl)hexahydropyrrolo[3,4-c]pyrrol-2(1H)-yl]quinoxaline], the Kb came to 126 nM.

For the compound `COc1ccc(C(=O)N2CC3CN(c4nc(C)c(F)c(C)n4)CC3C2)c(-n2nccn2)c1` (stereo not drawn) [Example 379, 2-(5-Fluoro-4,6-dimethylpyrimidin-2-yl)-5-{[4-methoxy-2-(2H-1,2,3-triazol-2-yl)phenyl]carbonyl}octahydropyrrolo[3,4-c]pyrrole], the Kb was determined as 5 nM. The value for `CN(C)c1cc(N2CC3CN(C(=O)c4c(F)cccc4-n4nccn4)CC3C2)nc(C(F)(F)F)n1` (stereo not drawn) [Example 3, 6-[5-{[2-Fluoro-6-(2H-1,2,3-triazol-2-yl)phenyl]carbonyl}hexahydropyrrolo[3,4-c]pyrrol-2(1H)-yl]-N,N-dimethyl-2-(trifluoromethyl)pyrimidin-4-amine] was 14 nM; that for `Cc1cnc(C)c(N2CC3CN(C(=O)c4ccc(F)cc4-n4nccn4)CC3C2)n1` (stereo not drawn) [Example 104, 2-(3,6-Dimethylpyrazin-2-yl)-5-{[4-fluoro-2-(2H-1,2,3-triazol-2-yl)phenyl]carbonyl}octahydropyrrolo[3,4-c]pyrrole] was 25 nM. The value for `CN(C)c1nc(N2CC3CN(C(=O)c4ccccc4-n4nccn4)CC3C2)cc(C(F)(F)F)n1` (stereo not drawn) [Example 121, N,N-Dimethyl-4-[5-{[2-(2H-1,2,3-triazol-2-yl)phenyl]carbonyl}hexahydropyrrolo[3,4-c]pyrrol-2(1H)-yl]-6-(trifluoromethyl)pyrimidin-2-amine] was 13 nM. The value for `COc1ccnc(N2CC3CN(C(=O)c4c(C)ccc5ccccc45)CC3C2)n1` (stereo not drawn) [Example 49, 2-(4-Methoxypyrimidin-2-yl)-5-[(2-methylnaphthalen-1-yl)carbonyl]octahydro-pyrrolo[3,4-c]pyrrole] was 32 nM; that for `Cc1nc(N2CC3CN(C(=O)c4cccc(F)c4-c4ncccn4)CC3C2)nc(C)c1C` (stereo not drawn) [Example 239, (3-Fluoro-2-(pyrimidin-2-yl)phenyl)(5-(4,5,6-trimethylpyrimidin-2-yl)hexahydropyrrolo[3,4-c]pyrrol-2(1H)-yl)methanone] was 4 nM. With `O=C(c1cccc(F)c1-c1ncccn1)N1CC2CN(c3ncc4cc(F)ccc4n3)CC2C1` (stereo not drawn) [Example 243, (3-Fluoro-2-(pyrimidin-2-yl)phenyl)(5-(6-fluoroquinazolin-2-yl)hexahydropyrrolo[3,4-c]pyrrol-2(1H)-yl)methanone], the Kb is 6 nM.
